Assay results from patent publication US20150105252A1, “SUBSTITUTED PYRAZOLES AS HERBICIDES” (E I DU PONT DE NEMOURS AND COMPANY, priority 2013, published 2015).

Columns and labels:
Assay in all cases: Test C postemergence
[1] = test system: ryegrass, Italian; type: in vivo, Lolium multiflorum; details: for Plant response rating (scale of 0 to 100 where 0 is no effect and 100 is complete control), Ryegrass, Italian: Postemergence, 31 g ai/ha, visually evaluated after 13 to 15 days; for Ryegrass, Italian plant response rating / Plant response rating, Ryegrass, Italian: postemergence; for Ryegrass, Italian plant response rating: 62 g ai/ha, scale 0 to 100
How it was run: (§1)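 Herbicidal effect is expressed as percent visual control (0–100) judged against untreated plants 13 to 15 days after treatment in the greenhouse. Preemergence pots contained seeds in a soil–sand blend; postemergence plants, 2–18 cm tall, grew in peat-based planting medium.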

[2] = test system: wheat; type: in vivo, Triticum aestivum; details: for Plant response rating (scale of 0 to 100 where 0 is no effect and 100 is complete control), Wheat: Postemergence, 31 g ai/ha, visually evaluated after 13 to 15 days; for Wheat plant response rating / Plant response rating, Wheat: postemergence; for Wheat plant response rating: scale 0 to 100
How it was run: as §1

[3] = test system: galium; type: in vivo, Galium aparine; details: for Plant response rating (scale of 0 to 100 where 0 is no effect and 100 is complete control), Galium: Postemergence, 31 g ai/ha, visually evaluated after 13 to 15 days; for Galium plant response rating / Plant response rating, Galium: postemergence; for Galium plant response rating: 62 g ai/ha, scale 0 to 100
How it was run: as §1

[4] = test system: corn; type: in vivo, Zea mays; details: for Plant response rating (scale of 0 to 100 where 0 is no effect and 100 is complete control), Corn: Postemergence, 31 g ai/ha, visually evaluated after 13 to 15 days; for Corn plant response rating / Plant response rating, Corn: postemergence; for Corn plant response rating: 62 g ai/ha, scale 0 to 100
How it was run: as §1

[5] = test system: foxtail, giant; type: in vivo, Setaria faberii; details: for Plant response rating (scale of 0 to 100 where 0 is no effect and 100 is complete control), Foxtail, Giant: Postemergence, 31 g ai/ha, visually evaluated after 13 to 15 days; for Foxtail, Giant plant response rating / Plant response rating, Foxtail, Giant: postemergence; for Foxtail, Giant plant response rating: 62 g ai/ha, scale 0 to 100
How it was run: as §1

[6] = test system: lambsquarters; type: in vivo, Chenopodium album; details: for Lambsquarters plant response rating / Plant response rating, Lambsquarters: postemergence; for Lambsquarters plant response rating: 62 g ai/ha, scale 0 to 100
How it was run: as §1

[7] = test system: nutsedge, yellow; type: in vivo, Cyperus esculentus; details: for Plant response rating (scale of 0 to 100 where 0 is no effect and 100 is complete control), Nutsedge, Yellow: Postemergence, 31 g ai/ha, visually evaluated after 13 to 15 days; for Nutsedge, Yellow plant response rating / Plant response rating, Nutsedge, Yellow: postemergence; for Nutsedge, Yellow plant response rating: 62 g ai/ha, scale 0 to 100
How it was run: as §1

[8] = test system: pigweed; type: in vivo, Amaranthus retroflexus; details: for Plant response rating (scale of 0 to 100 where 0 is no effect and 100 is complete control), Pigweed: Postemergence, 31 g ai/ha, visually evaluated after 13 to 15 days; for Pigweed plant response rating / Plant response rating, Pigweed: postemergence; for Pigweed plant response rating: 62 g ai/ha, scale 0 to 100
How it was run: as §1

[9] = test system: ragweed; type: in vivo, Ambrosia elation; details: for Plant response rating (scale of 0 to 100 where 0 is no effect and 100 is complete control), Ragweed: Postemergence, 31 g ai/ha, visually evaluated after 13 to 15 days; for Ragweed plant response rating / Plant response rating, Ragweed: postemergence; for Ragweed plant response rating: 62 g ai/ha, scale 0 to 100
How it was run: as §1

[10] = test system: soybean; type: in vivo, Glycine max; details: for Plant response rating (scale of 0 to 100 where 0 is no effect and 100 is complete control), Soybean: Postemergence, 31 g ai/ha, visually evaluated after 13 to 15 days; for Soybean plant response rating / Plant response rating, Soybean: postemergence
How it was run: as §1

[11] = test system: barnyardgrass; type: in vivo, Echinochloa crus-galli; details: for Plant response rating (scale of 0 to 100 where 0 is no effect and 100 is complete control), Barnyardgrass: Postemergence, 31 g ai/ha, visually evaluated after 13 to 15 days; for Barnyardgrass plant response rating / Plant response rating, Barnyardgrass: postemergence; for Barnyardgrass plant response rating: 62 g ai/ha, scale 0 to 100
How it was run: as §1

[12] = test system: oilseed rape; type: in vivo, Brassica napus; details: for Plant response rating (scale of 0 to 100 where 0 is no effect and 100 is complete control), Oilseed Rape: Postemergence, 31 g ai/ha, visually evaluated after 13 to 15 days; for Oilseed Rape plant response rating / Plant response rating, Oilseed Rape: postemergence; for Oilseed Rape plant response rating: 62 g ai/ha, scale 0 to 100
How it was run: as §1

[13] = test system: waterhemp; type: in vivo, Amaranthus rudis; details: for Plant response rating (scale of 0 to 100 where 0 is no effect and 100 is complete control), Waterhemp: Postemergence, 31 g ai/ha, visually evaluated after 13 to 15 days; for Waterhemp plant response rating / Plant response rating, Waterhemp: postemergence; for Waterhemp plant response rating: scale 0 to 100
How it was run: as §1

[14] = test system: oat, wild; type: in vivo, Avena fatua; details: for Plant response rating (scale of 0 to 100 where 0 is no effect and 100 is complete control), Oat, Wild: Postemergence, 31 g ai/ha, visually evaluated after 13 to 15 days; for Oat, Wild plant response rating / Plant response rating, Oat, Wild: postemergence; for Oat, Wild plant response rating: 62 g ai/ha, scale 0 to 100
How it was run: as §1

[15] = test system: kochia; type: in vivo, Kochia scoparia; details: for Plant response rating (scale of 0 to 100 where 0 is no effect and 100 is complete control), Kochia: Postemergence, 31 g ai/ha, visually evaluated after 13 to 15 days; for Kochia plant response rating / Plant response rating, Kochia: postemergence; for Kochia plant response rating: 62 g ai/ha, scale 0 to 100
How it was run: as §1

[16] = 250 g ai/ha, scale 0 to 100 (0 no effect, 100 complete control)
[17] = 125 g ai/ha, scale 0 to 100, 0 no effect, 100 complete control

CCOc1cc(C(=O)NC2CC2)nn1Cc1ccnc(OC(F)F)c1 [Compound 133]
35: Plant response rating, Corn [4, 16] | Plant response rating (scale of 0 to 100 where 0 is no effect and 100 is complete control), Foxtail, Giant [5] | Plant response rating, Oat, Wild [14, 16]
15: Plant response rating, Wheat [2, 17] | Plant response rating, Nutsedge, Yellow [7, 16] | Plant response rating, Barnyardgrass [11, 16] | Plant response rating, Oat, Wild [14, 17]
60: Pigweed plant response rating [8] | Oilseed Rape plant response rating [12] | Plant response rating (scale of 0 to 100 where 0 is no effect and 100 is complete control), Waterhemp [13] | Waterhemp plant response rating ([13]; 62 g ai/ha)
95: Plant response rating, Soybean [10, 16] | Plant response rating, Soybean [10, 17] | Plant response rating, Waterhemp [13, 16]
80: Plant response rating, Galium [3, 16] | Plant response rating, Foxtail, Giant [5, 16] | Plant response rating, Pigweed [8, 17]
75: Plant response rating, Ragweed [9, 17] | Soybean plant response rating ([10]; 62 g ai/ha, scale 0 to 100) | Plant response rating, Oilseed Rape [12, 17] | Plant response rating, Waterhemp [13, 17]
50: Plant response rating, Foxtail, Giant [5, 17] | Plant response rating (scale of 0 to 100 where 0 is no effect and 100 is complete control), Lambsquarters ([6]; Postemergence, 31 g ai/ha, visually evaluated after 13 to 15 days) | Plant response rating (scale of 0 to 100 where 0 is no effect and 100 is complete control), Pigweed [8] | Plant response rating (scale of 0 to 100 where 0 is no effect and 100 is complete control), Oilseed Rape [12]
10: Plant response rating, Ryegrass, Italian [1, 16] | Plant response rating (scale of 0 to 100 where 0 is no effect and 100 is complete control), Corn [4] | Corn plant response rating [4] | Plant response rating, Corn [4, 17]
85: Plant response rating, Ragweed [9, 16] | Plant response rating (scale of 0 to 100 where 0 is no effect and 100 is complete control), Soybean [10] | Plant response rating, Oilseed Rape [12, 16] | Plant response rating (scale of 0 to 100 where 0 is no effect and 100 is complete control), Kochia [15]
55: Lambsquarters plant response rating [6]
40: Foxtail, Giant plant response rating [5]
90: Plant response rating, Lambsquarters [6, 16] | Plant response rating, Lambsquarters [6, 17] | Plant response rating, Pigweed [8, 16] | Kochia plant response rating [15] | Plant response rating, Kochia [15, 16] | Plant response rating, Kochia [15, 17]
5: Plant response rating (scale of 0 to 100 where 0 is no effect and 100 is complete control), Ryegrass, Italian [1] | Ryegrass, Italian plant response rating [1] | Plant response rating, Ryegrass, Italian [1, 17] | Plant response rating (scale of 0 to 100 where 0 is no effect and 100 is complete control), Wheat [2] | Wheat plant response rating ([2]; 62 g ai/ha) | Plant response rating (scale of 0 to 100 where 0 is no effect and 100 is complete control), Nutsedge, Yellow [7] | Nutsedge, Yellow plant response rating [7] | Plant response rating, Nutsedge, Yellow [7, 17] | Plant response rating (scale of 0 to 100 where 0 is no effect and 100 is complete control), Barnyardgrass [11] | Barnyardgrass plant response rating [11] | Plant response rating, Barnyardgrass [11, 17] | Plant response rating (scale of 0 to 100 where 0 is no effect and 100 is complete control), Oat, Wild [14] | Oat, Wild plant response rating [14]
30: Plant response rating, Wheat [2, 16]
70: Plant response rating (scale of 0 to 100 where 0 is no effect and 100 is complete control), Galium [3] | Galium plant response rating [3] | Plant response rating, Galium [3, 17]
25: Plant response rating (scale of 0 to 100 where 0 is no effect and 100 is complete control), Ragweed [9] | Ragweed plant response rating [9]

CCCc1cc(C(=O)NCC(F)(F)F)nn1Cc1cc(C(F)(F)F)nn1C [Compound 138]
30: Plant response rating, Corn [4, 16] | Ragweed plant response rating [9] | Plant response rating, Oat, Wild [14, 16]
10: Plant response rating, Ryegrass, Italian [1, 16] | Plant response rating, Foxtail, Giant [5, 17] | Plant response rating (scale of 0 to 100 where 0 is no effect and 100 is complete control), Ragweed [9] | Plant response rating (scale of 0 to 100 where 0 is no effect and 100 is complete control), Barnyardgrass [11] | Plant response rating (scale of 0 to 100 where 0 is no effect and 100 is complete control), Oat, Wild [14] | Plant response rating, Oat, Wild [14, 17]
100: Waterhemp plant response rating [13] | Plant response rating (scale of 0 to 100 where 0 is no effect and 100 is complete control), Kochia [15]
95: Plant response rating, Lambsquarters [6, 16] | Plant response rating, Waterhemp [13, 16]
80: Plant response rating, Galium [3, 16] | Plant response rating, Pigweed [8, 17] | Plant response rating, Oilseed Rape [12, 17]
25: Barnyardgrass plant response rating [11]
0: Plant response rating (scale of 0 to 100 where 0 is no effect and 100 is complete control), Nutsedge, Yellow [7] | Nutsedge, Yellow plant response rating [7]
5: Plant response rating (scale of 0 to 100 where 0 is no effect and 100 is complete control), Ryegrass, Italian [1] | Plant response rating, Ryegrass, Italian [1, 17] | Plant response rating (scale of 0 to 100 where 0 is no effect and 100 is complete control), Wheat [2] | Wheat plant response rating ([2]; 62 g ai/ha) | Plant response rating (scale of 0 to 100 where 0 is no effect and 100 is complete control), Foxtail, Giant [5] | Foxtail, Giant plant response rating [5] | Plant response rating, Nutsedge, Yellow [7, 16] | Plant response rating, Nutsedge, Yellow [7, 17]
20: Plant response rating, Barnyardgrass [11, 17] | Oat, Wild plant response rating [14]
15: Ryegrass, Italian plant response rating [1] | Plant response rating, Wheat [2, 16] | Wheat plant response rating [2] | Plant response rating (scale of 0 to 100 where 0 is no effect and 100 is complete control), Corn [4] | Corn plant response rating [4] | Plant response rating, Corn [4, 17]
90: Soybean plant response rating [10, 17] | Kochia plant response rating [15] | Plant response rating, Kochia [15, 16] | Plant response rating, Kochia [15, 17]
65: Plant response rating (scale of 0 to 100 where 0 is no effect and 100 is complete control), Galium [3] | Plant response rating (scale of 0 to 100 where 0 is no effect and 100 is complete control), Soybean [10] | Plant response rating, Soybean [10, 16] | Plant response rating, Barnyardgrass [11, 16]
50: Plant response rating, Foxtail, Giant [5, 16] | Plant response rating, Ragweed [9, 17]
75: Plant response rating, Galium [3, 17] | Plant response rating, Lambsquarters [6, 17] | Plant response rating (scale of 0 to 100 where 0 is no effect and 100 is complete control), Pigweed [8] | Soybean plant response rating ([10]; 62 g ai/ha, scale 0 to 100) | Plant response rating (scale of 0 to 100 where 0 is no effect and 100 is complete control), Waterhemp [13]
55: Plant response rating (scale of 0 to 100 where 0 is no effect and 100 is complete control), Oilseed Rape [12]
40: Lambsquarters plant response rating [6]
60: Plant response rating, Ragweed [9, 16] | Oilseed Rape plant response rating [12] | Plant response rating, Oilseed Rape [12, 16]
85: Pigweed plant response rating [8] | Plant response rating, Pigweed [8, 16]
70: Galium plant response rating [3] | Waterhemp plant response rating ([13]; 62 g ai/ha)
